{
  "source": "patent US7807702B2",
  "about": "(Eli Lilly and Company, priority 2005, dated 2010)",
  "target": "T1, cloned human glucagon receptor (Homo sapiens, UniProt P47871)",
  "T1 construct": "The hGlucR cDNA is subcloned into the expression plasmid phD; expressed in transfected cells; host or cells: 293 HEK cells, hygromycin-selected; crude plasma membranes",
  "T1 sequence (P47871 26-477)": "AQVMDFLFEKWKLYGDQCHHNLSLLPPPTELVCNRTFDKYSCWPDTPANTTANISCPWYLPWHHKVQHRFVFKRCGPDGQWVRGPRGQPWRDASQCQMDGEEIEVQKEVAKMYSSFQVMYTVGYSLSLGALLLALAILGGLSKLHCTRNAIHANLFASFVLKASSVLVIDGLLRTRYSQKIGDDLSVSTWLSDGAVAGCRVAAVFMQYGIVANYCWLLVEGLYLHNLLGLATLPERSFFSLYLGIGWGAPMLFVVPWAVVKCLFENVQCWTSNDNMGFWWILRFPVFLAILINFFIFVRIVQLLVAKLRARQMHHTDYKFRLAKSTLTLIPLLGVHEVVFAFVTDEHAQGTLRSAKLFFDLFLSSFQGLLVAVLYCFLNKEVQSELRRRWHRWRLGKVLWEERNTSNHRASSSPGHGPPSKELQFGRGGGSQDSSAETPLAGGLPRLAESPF",
  "assay": "Glucagon Receptor (hGlucR) Binding Assay",
  "procedure": "Crude plasma membranes are prepared using cells from suspension culture. […] The second supernate is combined with the first supernate.\nThe specific activity is 2200 Ci/mmol.",
  "data": [
    {"smiles": "CCCC(Sc1cc(C)c(-c2ccc(C(F)(F)F)cc2)c(C)c1)c1ccc(C(=O)NCc2nnn[nH]2)s1", "note": "(stereo not shown)", "values": [
      {"measurement": "Ki", "value": 36, "unit": "nM"}
    ]}
  ]
}
